Here are results for eight compounds from patent US5750556A, “2-(aminomethyl)-3,4,7,9-tetrahydro-2H-pyrano-[2,3-E]indol-8-ones and derivatives” (priority 1996, dated 1998).

T1 sequence (P61169 whole entry): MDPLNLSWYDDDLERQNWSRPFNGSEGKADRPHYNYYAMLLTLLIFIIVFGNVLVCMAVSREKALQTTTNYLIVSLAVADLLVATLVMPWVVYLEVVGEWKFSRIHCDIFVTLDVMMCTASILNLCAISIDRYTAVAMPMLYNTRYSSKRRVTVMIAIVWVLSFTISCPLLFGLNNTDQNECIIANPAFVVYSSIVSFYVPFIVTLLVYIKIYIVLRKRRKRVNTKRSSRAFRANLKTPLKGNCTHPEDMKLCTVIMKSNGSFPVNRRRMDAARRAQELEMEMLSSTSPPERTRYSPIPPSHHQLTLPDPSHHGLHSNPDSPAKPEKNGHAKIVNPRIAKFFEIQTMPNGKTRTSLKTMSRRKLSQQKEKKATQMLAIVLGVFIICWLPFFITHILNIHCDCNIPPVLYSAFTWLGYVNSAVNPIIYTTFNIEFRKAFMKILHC

The first assay addresses T1, dopamine autoreceptor (D2 Quin.) (Rattus norvegicus, UniProt P61169).
T1 construct: homogenized rat striatal brain tissue is incubated; from tissue; host or cells: rat striatum, homogenate
Briefly: [3H]-quinpirole binding, rat striatal homogenate (D2 Quin., dopamine autoreceptor affinity). The following applies: homogenized rat striatal brain tissue, read-out: IC50 (nM) D2 Qmin.
For `O=C1Cc2c(ccc3c2OC(CNCc2ccc(Cl)cc2)CC3)N1` (stereo not drawn) [Example 1e, 2-(4-Chloro-benzylamino-methyl)-3,4,7,9-tetrahydro-2H-pyrano[2,3-e]indol-8-one], the IC50 was 0.65 nM.

The target in another assay is T2, dopamine D2 receptor (Rattus norvegicus, UniProt P61169).
T2 construct: from tissue; host or cells: limbic brain tissue, homogenate
T2 sequence (P61169 whole entry): as above
Briefly: [3H]-spiperidone binding, limbic brain homogenate (D2 Spiper). The following applies: homogenized limbic brain tissue. How it is done: High affinity for the dopamine D2 receptor was established by the standard experimental test procedure of Fields, et al., Brain Res., 136, […] (1977) and Yamamura et al., ed., Neurotransmitter Receptor Binding, Raven Press, N.Y. (1978) wherein homogenized limbic brain tissue is incubated with [^3 H]-spiperidone at various concentrations of test compound, filtered washed, and shaken with Hydrofluor scintillation cocktail (National Diagnostics) and counted in a Packard 460 CD scintillation counter.
The compound `O=C1Cc2c(ccc3c2OC(CNCc2ccccc2)CC3)N1` (single isomer, unassigned; (+)) [Example 2a, (+)-2-(benzylamino-methyl)-3,4,9-tetrhydro-2H-pyrano[2,3-e]indol-8-one] had an IC50 of 734 nM.

`O=C1Cc2c(ccc3c2OC(CNCc2ccccc2)CC3)N1` (single isomer, unassigned; (-)) [Example 2b, (-)-2-(benzylamino-methyl)-3,4,7,9-tetrhydro-2H-pyrano[2,3-e]indol-8-one] displayed an IC50 of 71.5 nM.

In turn, `O=C1Cc2c(ccc3c2OC(CNCc2ccccc2)CC3)N1` (stereo not drawn) [Example 1a, 2-(Benzylamino-methyl)-3,4,7,9-tetrahydro-2H-pyrano-[2,3-e]indol-8-one] had a concentration for half-maximal inhibition (IC50) of 142 nM. The same measure, in the same setting: the same measure for `O=C1Cc2c(ccc3c2OC(CNCc2ccc(F)cc2)CC3)N1` (stereo not drawn) [Example 1b, 2-(4-Fluoro-benzylamino-methyl)-3,4,7,9-tetrahydro-2H-pyrano[2,3-e]indol-8-one]: 310 nM; for `COc1ccc(CNCC2CCc3ccc4c(c3O2)CC(=O)N4)cc1` (stereo not drawn) [Example 1c, 2-(4-Methoxy-benzylamino-methyl)-3,4,7,9-tetrahydro-2H-pyrano[2,3e]indol-8-one]: 295 nM. In turn, `Cc1ccc(CNCC2CCc3ccc4c(c3O2)CC(=O)N4)cc1` (stereo not drawn) [Example 1d, 2-(4-Methyl-benzylamino-methyl)-3,4,7,9-tetrahydro-2H-pyrano[2,3-e]indol8-one] returned a 50% inhibitory concentration (IC50) of 103 nM. On the same count and under the same terms, the value for `O=C1Cc2c(ccc3c2OC(CNCc2ccc(Cl)cc2)CC3)N1` (stereo not drawn) [Example 1e, 2-(4-Chloro-benzylamino-methyl)-3,4,7,9-tetrahydro-2H-pyrano[2,3-e]indol-8-one] was 148 nM. On the same count and under the same terms, the value for `Cc1ccc(CNCC2CCc3ccc4c(c3O2)CC(=O)N4)c(C)c1` (stereo not drawn) [Example 1f, 2-(2,4-Dimethyl-benzylamino-methyl)-3,4,7,9-tetrahydo-2H-pyrano[2,3-e]indol-8-one] was 392 nM.
